Assay results from patent US20100249071A1, “Modulators of S1P and Methods of Making And Using” (Exelixis, Inc., priority 2009, published 2010).
Where two headings read alike, the source gives them in different places.

How the values were obtained:
S1P1 = target: T1, S1P1 (Homo sapiens, UniProt P21453); test: Tango β-arrestin recruitment assay in U2OS cells (Assay 2b); format: cell-based
T1 construct: host or cells: U2OS
Outline: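 In this agonist-mode Tango assay, U2OS cells carrying S1P1 and the reporter were serum-starved 48 h, then exposed overnight at 37 °C to compound (10 points, 3-fold, top 1 μM, 1% DMSO). β-Lactamase F460/F530 ratio was normalized to 1 μM S1P, and EC50 was fitted.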

[1] = target: T2, hS1PR5 (hEdg8) membrane protein (Homo sapiens, UniProt Q9H228); test: hS1P5R GTPγS binding assay (Assay 4); format: biochemical
T2 construct: expressed in transfected cells; host or cells: CHO
Outline: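 Membranes (5 μg) from CHO cells expressing hS1PR5, incubated 1 h at room temperature with 30 μM GDP, 0.1 nM [35S]GTPγS, 0.25% fatty acid free BSA and serially diluted compound in pH 7.9 Tris buffer with MgCl2. WGA SPA beads added for another 1 h, then bound [35S]GTPγS counted by scintillation.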

[2] = target: T3, hS1P1R (hEdg1) membrane protein (Homo sapiens, UniProt P21453); test: hS1P1R GTPγS binding assay (Assay 3a); format: biochemical
T3 construct: purchased Lonza
Outline: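 Membranes (4 μg) expressing hS1P1R incubated 1 h at room temperature with 30 μM GDP, 0.1 nM [^35S]GTPγS, 0.25% fatty acid free BSA and serially diluted agonist in Tris-HCl pH 7.9/NaCl/MgCl2/EGTA buffer. Bound [^35S]GTPγS captured on WGA SPA beads (further 1 h) and counted.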

S1P3 = target: T4, S1P3 (Homo sapiens, UniProt Q99500); test: S1P3 Tango β-arrestin recruitment assay in HEK293 cells (Assay 5); format: cell-based
T4 construct: host or cells: HEK293 (transient transfection)
Outline: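 HEK293 cells transiently expressing S1P3 fused via TEV-cleavable linker to tTA, with β-arrestin2–TEV, treated 16-18 h at 37 °C with compounds (top 10 μM, 10-point 3-fold, 1% DMSO). Luciferase reporter luminescence normalised to DMSO background and 5 μM S1P control as percent activity; EC50 from concentration-response curves.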

[3] = * = rEC50 measured rather than EC50, read-out: Assay 2b rEC50 (relative EC50, cells marked *)

T3 sequence (P21453 whole entry): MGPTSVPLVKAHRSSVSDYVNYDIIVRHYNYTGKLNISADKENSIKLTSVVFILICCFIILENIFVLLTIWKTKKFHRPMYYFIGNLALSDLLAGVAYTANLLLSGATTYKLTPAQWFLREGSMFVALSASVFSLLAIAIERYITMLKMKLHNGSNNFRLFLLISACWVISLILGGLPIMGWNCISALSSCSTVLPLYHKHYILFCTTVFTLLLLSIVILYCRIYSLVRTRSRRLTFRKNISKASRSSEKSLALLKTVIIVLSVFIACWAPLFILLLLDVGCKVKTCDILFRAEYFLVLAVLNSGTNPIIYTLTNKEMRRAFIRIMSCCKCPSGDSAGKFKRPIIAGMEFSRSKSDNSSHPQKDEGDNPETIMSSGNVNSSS
T4 sequence (P32121 whole entry): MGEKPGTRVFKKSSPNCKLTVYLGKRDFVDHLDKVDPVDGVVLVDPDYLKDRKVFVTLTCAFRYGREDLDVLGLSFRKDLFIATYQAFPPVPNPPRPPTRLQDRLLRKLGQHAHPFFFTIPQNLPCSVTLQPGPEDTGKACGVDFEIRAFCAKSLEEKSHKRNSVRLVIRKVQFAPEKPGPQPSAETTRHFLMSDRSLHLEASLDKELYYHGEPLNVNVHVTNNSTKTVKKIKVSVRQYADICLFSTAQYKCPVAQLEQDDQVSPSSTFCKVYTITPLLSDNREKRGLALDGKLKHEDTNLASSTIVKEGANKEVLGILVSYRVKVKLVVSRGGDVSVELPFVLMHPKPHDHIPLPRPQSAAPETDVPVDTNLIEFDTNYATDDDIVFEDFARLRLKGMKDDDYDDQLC
T4 sequence (Q99500 whole entry): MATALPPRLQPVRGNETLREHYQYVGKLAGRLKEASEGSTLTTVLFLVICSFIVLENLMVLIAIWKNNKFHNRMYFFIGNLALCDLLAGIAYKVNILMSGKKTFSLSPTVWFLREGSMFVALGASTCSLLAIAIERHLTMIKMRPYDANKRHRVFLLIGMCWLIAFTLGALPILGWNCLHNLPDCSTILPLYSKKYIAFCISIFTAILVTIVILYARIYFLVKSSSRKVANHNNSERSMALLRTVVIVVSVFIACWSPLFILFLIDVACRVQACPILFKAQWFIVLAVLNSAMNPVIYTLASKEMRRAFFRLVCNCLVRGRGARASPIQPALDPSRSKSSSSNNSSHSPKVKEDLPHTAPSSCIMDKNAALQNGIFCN
T1 sequence (P32121 whole entry): as the sequence (P32121 whole entry) above
T1 sequence (P21453 whole entry): as the sequence (P21453 whole entry) above
T2 sequence (Q9H228 whole entry): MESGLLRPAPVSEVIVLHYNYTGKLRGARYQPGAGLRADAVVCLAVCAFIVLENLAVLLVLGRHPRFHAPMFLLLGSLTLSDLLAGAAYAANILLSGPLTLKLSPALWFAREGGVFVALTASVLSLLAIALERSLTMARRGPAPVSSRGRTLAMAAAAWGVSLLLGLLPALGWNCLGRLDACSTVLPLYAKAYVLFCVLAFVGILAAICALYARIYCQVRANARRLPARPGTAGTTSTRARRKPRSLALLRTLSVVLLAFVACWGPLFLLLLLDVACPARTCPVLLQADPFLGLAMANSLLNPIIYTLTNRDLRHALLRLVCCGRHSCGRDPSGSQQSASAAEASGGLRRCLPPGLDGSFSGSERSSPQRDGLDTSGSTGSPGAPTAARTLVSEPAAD

EC50 (S1P1; read-out: Assay 2b EC50) [nM] | EC50 [1] [nM] | EC50 [2] [nM] | EC50 (S1P3; read-out: Assay 5 EC50) [nM] | EC50 (S1P1; [3]) [nM] | EC50 (S1P3; * = rEC50 measured rather than EC50, read-out: Assay 5 rEC50 (relative EC50, cells marked *)) [nM] | Molecule
50 to 250 | 50 to 250 | 10 to 50 | > 10000 |  |  | CCCOc1ccc(-c2nnc(-c3cc(F)c(OC[C@H](N)CO)cc3Cl)s2)cc1Cl [Entry 17, (2R)-2-amino-3-[(5-chloro-4-{5-[3-chloro-4-(propyloxy)phenyl]-1,3,4-thiadiazol-2-yl}-2-fluorophenyl)oxy]propan-1-ol]
≤ 10 | > 10000 | 250 to 2800 | > 10000 |  |  | CC(C)N(C)c1cc(-c2nnc(-c3cc(F)c(OCC(N)CO)cc3Cl)s2)ccn1 (stereo not shown) [Entry 41, 2-amino-3-{[5-chloro-2-fluoro-4-(5-{2-[methyl(1-methylethyl)amino]pyridin-4-yl}-1,3,4-thiadiazol-2-yl)phenyl]oxy}propan-1-ol]
50 to 250 | 10 to 50 | ≤ 10 | > 10000 |  |  | CC(C)Nc1ccc(-c2nnc(-c3cc(F)c(OC[C@H](N)CO)cc3Cl)s2)cc1Cl [Entry 43, (2R)-2-amino-3-{[5-chloro-4-(5-{3-chloro-4-[(1-methylethyl)amino]phenyl}-1,3,4-thiadiazol-2-yl)-2-fluorophenyl]oxy}propan-1-ol]
≤ 10 | 250 to 2800 | 10 to 50 | ≤ 250 |  |  | CC(C)Oc1ccc(-c2nnc(-c3cc(F)c(OC[C@@H](N)CO)cc3Cl)s2)cn1 [Entry 38, (2S)-2-amino-3-{[5-chloro-2-fluoro-4-(5-{6-[(1-methylethyl)oxy]pyridin-3-yl}-1,3,4-thiadiazol-2-yl)phenyl]oxy}propan-1-ol]
50 to 250 | 250 to 2800 | 250 to 2800 | > 10000 |  |  | N[C@H](CO)COc1cc(Cl)c(-c2nnc(-c3cc(F)cc(Br)c3)s2)cc1F [Entry 24, (2R)-2-amino-3-({4-[5-(3-bromo-5-fluorophenyl)-1,3,4-thiadiazol-2-yl]-5-chloro-2-fluorophenyl}oxy)propan-1-ol]
≤ 10 | ≤ 10 | ≤ 10 | > 10000 |  |  | CC(C)Oc1ccc(-c2nnc(-c3cc(F)c(OC[C@H](N)[C@H](C)OP(=O)(O)O)cc3Cl)s2)cc1C#N [Entry 53, (1S,2S)-2-amino-3-{[5-chloro-4-(5-{3-cyano-4-[(1-methylethyl)oxy]phenyl}-1,3,4-thiadiazol-2-yl)-2-fluorophenyl]oxy}-1-methylpropyl dihydrogen phosphate]
≤ 10 | ≤ 10 | ≤ 10 | ≤ 250 |  |  | CC(C)Oc1ccc(-c2nnc(-c3cc(F)c(OC[C@H](N)[C@@H](C)OP(=O)(O)O)cc3Cl)s2)cc1C#N [Entry 50, (1R,2S)-2-amino-3-{[5-chloro-4-(5-{3-cyano-4-[(1-methylethyl)oxy]phenyl}-1,3,4-thiadiazol-2-yl)-2-fluorophenyl]oxy}-1-methylpropyl dihydrogen phosphate]
≤ 10 | 250 to 2800 | 10 to 50 | ≤ 250 |  |  | CC(C)Oc1ncc(-c2nnc(-c3cc(F)c(OCC(N)CO)cc3Cl)s2)cc1Cl (stereo not shown) [Entry 6, 2-amino-3-{[5-chloro-4-(5-{5-chloro-6-[(1-methylethyl)oxy]pyridin-3-yl}-1,3,4-thiadiazol-2-yl)-2-fluorophenyl]oxy}propan-1-ol]
≤ 10 | 250 to 2800 | 50 to 250 | > 250 |  |  | CC(C)Oc1ccc(-c2nnc(-c3cc(F)c(OCC(N)CO)cc3Cl)s2)cn1 (stereo not shown) [Entry 19, 2-amino-3-{[5-chloro-2-fluoro-4-(5-{6-[(1-methylethyl)oxy]pyridin-3-yl}-1,3,4-thiadiazol-2-yl)phenyl]oxy}propan-1-ol]
≤ 10 | ≤ 10 | ≤ 10 | ≤ 250 |  |  | CC(C)Oc1ccc(-c2nnc(-c3cc(F)c(OC[C@H](N)COP(=O)(O)O)cc3Cl)s2)cc1C#N [Entry 79, (2S)-2-amino-3-{[5-chloro-4-(5-{3-cyano-4-[(1-methylethyl)oxy]phenyl}-1,3,4-thiadiazol-2-yl)-2-fluorophenyl]oxy}propyl dihydrogen phosphate]
≤ 10 | 250 to 2800 | 10 to 50 | ≤ 250 |  |  | CC(C)Oc1ncc(-c2nnc(-c3cc(F)c(OC[C@@H](N)CO)cc3Cl)s2)cc1Cl [Entry 32, (2S)-2-amino-3-{[5-chloro-4-(5-{5-chloro-6-[(1-methylethyl)oxy]pyridin-3-yl}-1,3,4-thiadiazol-2-yl)-2-fluorophenyl]oxy}propan-1-ol]
10 to 50 | 250 to 2800 | 250 to 2800 | > 10000 |  |  | N[C@H](CO)COc1cc(Cl)c(-c2nnc(-c3cccc(Cl)c3)s2)cc1F [Entry 15, (2R)-2-amino-3-({5-chloro-4-[5-(3-chlorophenyl)-1,3,4-thiadiazol-2-yl]-2-fluorophenyl}oxy)propan-1-ol]
≤ 10 | 10 to 50 | ≤ 10 | > 250 |  |  | CC(C)Nc1ccc(-c2nnc(-c3cc(F)c(OC[C@H](N)[C@H](C)OP(=O)(O)O)cc3Cl)s2)cn1 [Entry 54, (1S,2S)-2-amino-3-{[5-chloro-2-fluoro-4-(5-{6-[(1-methylethyl)amino]pyridin-3-yl}-1,3,4-thiadiazol-2-yl)phenyl]oxy}-1-methylpropyl dihydrogen phosphate]
 | 250 to 2800 | 50 to 250 | ≤ 250 | ≤ 10 |  | CC(C)Nc1ncc(-c2nnc(-c3cc(F)c(OC[C@@H](N)CO)cc3Cl)s2)cn1 [Entry 90, (2S)-2-amino-3-{[5-chloro-2-fluoro-4-(5-{2-[(1-methylethyl)amino]pyrimidin-5-yl}-1,3,4-thiadiazol-2-yl)phenyl]oxy}propan-1-ol]
≤ 10 | ≤ 10 | ≤ 10 | ≤ 250 |  |  | CC(C)Oc1ccc(-c2nnc(-c3cc(F)c(OC[C@@H](N)[C@H](C)O)cc3Cl)s2)cc1C#N [Entry 55, 5-[5-(4-{[(2R,3S)-2-amino-3-hydroxybutyl]oxy}-2-chloro-5-fluorophenyl)-1,3,4-thiadiazol-2-yl]-2-[(1-methylethyl)oxy]benzonitrile]
 | ≤ 10 | ≤ 10 | ≤ 250 | ≤ 10 |  | (1R,2R)-2-amino-3-{[5-chloro-2-fluoro- 4-(5-{6-[(1-methylethyl)amino]pyridin- 3-yl}-1,3,4-thiadiazol-2-yl)phenyl]oxy}- 1-methylpropyl dihydrogen phosphate [Entry 102]
≤ 10 | 50 to 250 | ≤ 10 | > 10000 |  |  | N#Cc1cc(-c2nnc(-c3cc(F)c(OC[C@H](N)CO)cc3Cl)s2)ccc1OC1COC1 [Entry 49, 5-[5-(4-{[(2R)-2-amino-3-hydroxypropyl]oxy}-2-chloro-5-fluorophenyl)-1,3,4-thiadiazol-2-yl]-2-(oxetan-3-yloxy)benzonitrile]
10 to 50 | 250 to 2800 | 10 to 50 | > 10000 |  |  | CC(C)Nc1ncc(-c2nnc(-c3cc(F)c(OC[C@H](N)CO)cc3Cl)s2)cc1Cl [Entry 81, (2R)-2-amino-3-{[5-chloro-4-(5-{5-chloro-6-[(1-methylethyl)amino]pyridin-3-yl}-1,3,4-thiadiazol-2-yl)-2-fluorophenyl]oxy}propan-1-ol]
≤ 10 | 10 to 50 | ≤ 10 |  |  | > 250 | CC(C)Oc1ccc(-c2nnc(-c3cc(F)c(OC[C@H](N)[C@H](C)OP(=O)(O)O)cc3Cl)s2)cc1Cl [Entry 69, (1S,2S)-2-amino-3-{[5-chloro-4-(5-{3-chloro-4-[(1-methylethyl)oxy]phenyl}-1,3,4-thiadiazol-2-yl)-2-fluorophenyl]oxy}-1-methylpropyl dihydrogen phosphate]
50 to 250 | 250 to 2800 | 250 to 2800 | > 10000 |  |  | CC(C)Cc1ccc(-c2nnc(-c3cc(F)c(OC[C@H](N)CO)cc3Cl)s2)cc1 [Entry 3, (2R)-2-amino-3-[(5-chloro-2-fluoro-4-{5-[4-(2-methylpropyl)phenyl]-1,3,4-thiadiazol-2-yl}phenyl)oxy]propan-1-ol]
 | 250 to 2800 | 250 to 2800 | > 10000 | 250 to 2800 |  | CC(C)Oc1ccc(-c2nnc(-c3cc(F)c(OC[C@H](N)CO)cc3Cl)s2)cc1C(N)=O [Entry 80, 5-[5-(4-{[(2R)-2-amino-3-hydroxypropyl]oxy}-2-chloro-5-fluorophenyl)-1,3,4-thiadiazol-2-yl]-2-[(1-methylethyl)oxy]benzamide]
10 to 50 | 250 to 2800 | 250 to 2800 | > 10000 |  |  | CC(C)Nc1ccc(-c2nnc(-c3cc(F)c(OC[C@H](N)CO)cc3Cl)s2)cn1 [Entry 75, (2R)-2-amino-3-{[5-chloro-2-fluoro-4-(5-{6-[(1-methylethyl)amino]pyridin-3-yl}-1,3,4-thiadiazol-2-yl)phenyl]oxy}propan-1-ol]
